Experimental data as given in patent US12492200B2, “NLRP3 modulators” (INNATE TUMOR IMMUNITY, INC., priority 2020, dated 2025).

Molecular target: T1, NLRP3 (Homo sapiens, UniProt Q96P20)
T1 construct: host or cells: PMA-differentiated THP-1 cells
Experiment: Measurement of IL-1β production (NLRP3 hIL1β EC50), PMA-differentiated THP-1 cells
Type: cell-based
Settings: human IL-1β production; assayed using one or more of the described procedures
Experimental: THP-1 cells were purchased from the American Type Culture Collection and sub-cultured according to instructions from the supplier. Prior to experiments, cells were cultured in RPMI 1640 containing 10% heat inactivated FBS, penicillin (100 units/ml) and streptomycin (100 μg/ml), and maintained in log phase prior to experimental setup. Prior to the experiment THIP-1 were treated with PMA (Phorbol 12-myristate 13-acetate) (10 μg/ml) for 24 hours. The day of the experiment the media was removed and attaching cells were treated with trypsin for 2 minutes, cells were then collected, washed with PBS (phosphate buffer saline), spin down, resuspended in 2% heat inactivated FBS with RPMI at a concentration of 1×10^6 cells/ml, and 100 μl was plated in a 96 well plate. Compounds were dissolved in dimethyl sulfoxide (DMSO) and added to the culture medium to achieve desired concentration (e.g. 100, 30, 10, 3, 1, 0.3 or 0.1 μM). Cells were incubated with compounds for 4 hours. Cell free supernatant was collected and the production of IL-1β was evaluated by ELISA. A vehicle only control was run concurrently with each experiment. Final DMSO concentration was 1%.
THP-1 cells were purchased from the American Type Culture Collection and sub-cultured according to instructions from the supplier. Prior to experiments, cells were cultured in RPMI 1640 containing 10% heat inactivated FBS, penicillin (100 units/ml), streptomycin (100 μg/ml), HEPES (10 mM) and sodium pyruvate (1 mM) and maintained in log phase prior to experimental setup. Prior to the experiment, THP-1 cells were treated with PMA (Phorbol 12-myristate 13-acetate) (20 μg/ml) overnight. The day of the experiment, the media was removed and attached cells were treated with trypsin for 2 minutes, cells were then collected, washed with PBS (phosphate buffer saline), pelleted by centrifugation and resuspended in 2% heat inactivated FBS with RPMI at a concentration of 50,000 cells/well in a 384 well plate. Cell free supernatant was collected and the production of IL-1β was evaluated by ELISA. Compounds were dissolved in dimethyl sulfoxide (DMSO) and added to the culture medium to achieve desired concentration (e.g. 100, 30, 10, 3, 1, 0.3 or 0.1 μM). Cells were incubated with compounds for 2 hours. A vehicle only control was run concurrently with each experiment. Final DMSO concentration was 1%.
Serial dilutions of compounds in DMSO were added to low volume 384 well plates at 100 nl/well using an ECHO 550 acoustic dispenser (Labcyte) to achieve final starting concentration of 10 μM in assay.
THP-1 cells in RPMI (Gibco, 11875) media with 10% FBS at a density of 1×10^6 cell/ml in a T175 flask were treated with a final concentration of phorbol 12-myristate 13-acetate (PMA) (Sigma,P1585) of 50 ng/ml overnight at 37° C. at 5% CO2 for differentiation. Cells were harvested the next day after rinsing well with dPBS using 0.5% trypsin. A cell solution was prepared of 1×10^6 cells/ml for 50,000 cells in 50 μl/well in RPMI media with 2% FBS. Cells were plated using a multichannel pipette onto the compound dilutions in Greiner, 384 well, black clear bottom tissue culture treated plates (781090). The plates were incubated in 37° C. incubator at 5% CO2 for 2 hours.
After the 2 hour incubation, the cell plates were spun in the centrifuge for 5 minutes at 1200 rpm. Using the Felix (CyBio), 8 μl of the supernatant was transferred to 384 well, low volume, white proxy plates. (Perkin Elmer, 6008230). A human IL1beta hTRF kit was used to analyze the supernatant (CISBIO, 62HIL1BPEG). The kit instructions were followed for preparing the IL1Beta standard curve and then the antibodies from the kit were diluted 1:40 rather than 1:20 as kit instructed. Once combined, the antibodies were added across the plates, 5 μl/well. The plates were sealed and incubated at 4° C. overnight. The plates were then read on the Perkin Elmer EnVision at 665/615 nm using the hTRF laser.

T1 sequence (Q96P20 whole entry): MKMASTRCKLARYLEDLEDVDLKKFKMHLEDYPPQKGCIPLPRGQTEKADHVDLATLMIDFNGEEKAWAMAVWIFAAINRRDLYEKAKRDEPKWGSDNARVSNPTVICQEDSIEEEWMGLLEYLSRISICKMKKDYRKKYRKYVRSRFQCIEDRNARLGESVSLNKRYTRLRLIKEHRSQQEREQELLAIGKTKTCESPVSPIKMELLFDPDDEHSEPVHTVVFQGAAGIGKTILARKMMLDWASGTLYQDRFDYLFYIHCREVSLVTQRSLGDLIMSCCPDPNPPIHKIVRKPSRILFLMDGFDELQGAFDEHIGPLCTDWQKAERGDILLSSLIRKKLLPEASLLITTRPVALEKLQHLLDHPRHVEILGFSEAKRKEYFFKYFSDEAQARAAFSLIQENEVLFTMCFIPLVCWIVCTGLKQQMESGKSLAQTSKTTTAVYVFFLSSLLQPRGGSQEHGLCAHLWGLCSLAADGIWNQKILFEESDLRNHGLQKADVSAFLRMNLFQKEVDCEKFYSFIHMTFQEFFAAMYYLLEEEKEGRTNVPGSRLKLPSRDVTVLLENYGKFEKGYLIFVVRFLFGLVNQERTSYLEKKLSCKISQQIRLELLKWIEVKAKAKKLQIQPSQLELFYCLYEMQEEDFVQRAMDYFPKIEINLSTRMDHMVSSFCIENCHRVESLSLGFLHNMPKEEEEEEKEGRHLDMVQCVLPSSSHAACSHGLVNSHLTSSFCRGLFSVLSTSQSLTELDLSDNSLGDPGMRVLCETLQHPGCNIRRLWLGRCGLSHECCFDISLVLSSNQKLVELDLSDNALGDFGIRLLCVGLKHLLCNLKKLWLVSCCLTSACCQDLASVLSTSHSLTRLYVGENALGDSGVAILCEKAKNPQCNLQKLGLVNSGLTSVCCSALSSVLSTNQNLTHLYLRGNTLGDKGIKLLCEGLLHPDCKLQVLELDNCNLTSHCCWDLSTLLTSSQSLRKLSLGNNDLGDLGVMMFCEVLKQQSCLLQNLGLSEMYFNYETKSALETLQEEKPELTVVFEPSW

SMILES	EC50 [nM]
Nc1nc2cc(-c3cc[nH]n3)ccc2c2[nH]c([C@H]3CCCNC3)nc12 [Example 2, (S)-2-(Piperidin-3-yl)-7-(1H-pyrazol-3-yl)-1H-imidazo[4,5-c]quinolin-4-amine]	510
CCC(=O)N1CCC[C@H](c2nc3c(N)nc4cc(-c5cc[nH]n5)ccc4c3n2CC)C1 [Example 4, (S)-1-(3-(4-Amino-1-ethyl-7-(1H-pyrazol-3-yl)-1H-imidazo[4,5-c]quinolin-2-yl)piperidin-1-yl)propan-1-one]	260
CCC(=O)N1CCC[C@H](c2nc3c(N)nc4cc(-c5cc[nH]n5)ccc4c3n2C(C)C)C1 [Example 5, (S)-1-(3-(4-Amino-1-isopropyl-7-(1H-pyrazol-3-yl)-1H-imidazo[4,5-c]quinolin-2-yl)piperidin-1-yl)propan-1-one]	330
Nc1nc2cc(-c3cc[nH]n3)ccc2c2[nH]c([C@@H]3CCCNC3)nc12 [Example 7, (R)-2-(Piperidin-3-yl)-7-(1H-pyrazol-3-yl)-1H-imidazo[4,5-c]quinolin-4-amine]	1730
Nc1nc2cc(-c3cc[nH]n3)ccc2c2[nH]c([C@@H]3CCCN(C(=O)C4CCC4)C3)nc12 [Example 8, (R)-(3-(4-Amino-7-(1H-pyrazol-3-yl)-1H-imidazo[4,5-c]quinolin-2-yl)piperidin-1-yl)(cyclobutyl)methanone]	1900
CCC(=O)N1CC[C@H](c2nc3c(N)nc4cc(-c5cc[nH]n5)ccc4c3[nH]2)C1 [Example 9, (S)-1-(3-(4-Amino-7-(1H-pyrazol-3-yl)-1H-imidazo[4,5-c]quinolin-2-yl)pyrrolidin-1-yl)propan-1-one]	6600
CC(C)(C)OC(=O)N1CC[C@@H](c2nc3c(N)nc4cc(-c5cc[nH]n5)ccc4c3[nH]2)C1 [Example 10, tert-Butyl (R)-3-(4-amino-7-(1H-pyrazol-3-yl)-1H-imidazo[4,5-c]quinolin-2-yl)pyrrolidine-1-carboxylate]	750
CC(C)C(=O)N1CC[C@@H](c2nc3c(N)nc4cc(-c5cc[nH]n5)ccc4c3[nH]2)C1 [Example 11, (R)-1-(3-(4-Amino-7-(1H-pyrazol-3-yl)-1H-imidazo[4,5-c]quinolin-2-yl)pyrrolidin-1-yl)-2-methylpropan-1-one]	7000
CC(C)(C)OC(=O)N1CCC(c2nc3c(N)nc4cc(-c5cc[nH]n5)ccc4c3[nH]2)CC1 [Example 12, tert-Butyl 4-(4-amino-7-(1H-pyrazol-3-yl)-1H-imidazo[4,5-c]quinolin-2-yl)piperidine-1-carboxylate]	4900
CC(C)(C)OC(=O)N1CCC[C@@H]1Cc1nc2c(N)nc3cc(-c4cc[nH]n4)ccc3c2[nH]1 [Example 13, tert-Butyl (R)-2-((4-amino-7-(1H-pyrazol-3-yl)-1H-imidazo[4,5-c]quinolin-2-yl)methyl)pyrolidine-1-carboxylate]	1520
Nc1nc2cc(-c3cc[nH]n3)ccc2c2[nH]c(C[C@H]3CCCN3)nc12 [Example 14, (R)-7-(1H-pyrazol-3-yl)-2-(pyrrolidin-2-ylmethyl)-1H-imidazo[4,5-c]quinolin-4-amine]	110
CCC(=O)N1CCC[C@@H]1Cc1nc2c(N)nc3cc(-c4cc[nH]n4)ccc3c2[nH]1 [Example 15, (R)-1-(2-((4-Amino-7-(1H-pyrazol-3-yl)-1H-imidazo[4,5-c]quinolin-2-yl)methyl)pyrrolidin-1-yl)propane-1-one]	1800
CC(C)(C)OC(=O)N1CCC[C@H]1Cc1nc2c(N)nc3cc(-c4cc[nH]n4)ccc3c2[nH]1 [Example 16, tert-Butyl (S)-2-((4-amino-7-(1H-pyrazol-3-yl)-1H-imidazo[4,5-c]quinolin-2-yl)methyl)pyyrolidine-1-carboxylate]	3700
Nc1nc2cc(-c3cc[nH]n3)ccc2c2[nH]c(C[C@@H]3CCCN3)nc12 [Example 17, (S)-7-(1H-pyrazol-3-yl)-2-(pyrrolidin-2-ylmethyl)-1H-imidazo[4,5-c]quinolin-4-amine]	1200
COC(=O)N1CCC(Cc2nc3c(N)nc4cc(-c5cc[nH]n5)ccc4c3[nH]2)C1 (stereo not drawn) [Example 19, Methyl 3-((4-amino-7-(1H-pyrazol-3-yl)-1H-imidazo[4,5-c]quinolin-2-yl)methyl)pyrrolidine-1-carboxylate]	1600
CC(=O)N1CCC(Cc2nc3c(N)nc4cc(-c5cc[nH]n5)ccc4c3[nH]2)C1 (stereo not drawn) [Example 20, 1-(3-((4-Amino-7-(1H-pyrazol-3-yl)-1H-imidazo[4,5-c]quinolin-2-yl)methyl)pyrrolidin-1-yl)ethan-1-one]	4900
CCN1CCC(Cc2nc3c(N)nc4cc(-c5cc[nH]n5)ccc4c3[nH]2)C1 (stereo not drawn) [Example 21, 2-((1-Ethylpyrrolidin-3-yl)methyl)-7-(1H-pyrazol-3-yl)-1H-imidazo[4,5-c]quinolin-4-amine]	880
CCN1CCC(Cc2nc3c(N)nc4cc(-n5cccn5)ccc4c3[nH]2)C1 (stereo not drawn) [Example 22, 2-((1-Ethylpyrrolidin-3-yl)methyl)-7-(1H-pyrazol-1-yl)-1H-imidazo[4,5-c]quinolin-4-amine]	1400

SMILES	EC50 [nM]
CC(=O)N1CCC[C@H](c2nc3c(N)nc4cc(-c5cc[nH]n5)ccc4c3[nH]2)C1 [Example 24]	770
CCC(=O)N1CCC[C@H](c2nc3c(N)nc4cc(-c5cc[nH]n5)ccc4c3[nH]2)C1 [Example 25]	1100
CC(C)C(=O)N1CCC[C@H](c2nc3c(N)nc4cc(-c5cc[nH]n5)ccc4c3[nH]2)C1 [Example 26]	1200
CCCC(=O)N1CCC[C@H](c2nc3c(N)nc4cc(-c5cc[nH]n5)ccc4c3[nH]2)C1 [Example 27]	890
Nc1nc2cc(-c3cc[nH]n3)ccc2c2[nH]c([C@H]3CCCN(C(=O)C4CC4)C3)nc12 [Example 29]	2400
Nc1nc2cc(-c3cc[nH]n3)ccc2c2[nH]c([C@H]3CCCN(C(=O)C4CCC4)C3)nc12 [Example 30]	680
Nc1nc2cc(-c3cc[nH]n3)ccc2c2[nH]c([C@H]3CCCN(C(=O)c4ccccc4)C3)nc12 [Example 31]	1500
Nc1nc2cc(-c3cc[nH]n3)ccc2c2[nH]c([C@H]3CCCN(C(=O)C4CC(F)(F)C4)C3)nc12 [Example 32]	2500
Nc1nc2cc(-c3cc[nH]n3)ccc2c2[nH]c([C@H]3CCCN(C(=O)C4CC4(F)F)C3)nc12 (stereo partly drawn) [Example 33]	1000
COCC(=O)N1CCC[C@H](c2nc3c(N)nc4cc(-c5cc[nH]n5)ccc4c3[nH]2)C1 [Example 34]	2200
COCCC(=O)N1CCC[C@H](c2nc3c(N)nc4cc(-c5cc[nH]n5)ccc4c3[nH]2)C1 [Example 35]	1800
Nc1nc2cc(-c3cc[nH]n3)ccc2c2[nH]c([C@H]3CCCN(C(=O)C4(C(F)(F)F)CC4)C3)nc12 [Example 36]	2800
N#CC1(C(=O)N2CCC[C@H](c3nc4c(N)nc5cc(-c6cc[nH]n6)ccc5c4[nH]3)C2)CCC1 [Example 37]	4700
CCn1c([C@H]2CCCN(C(C)=O)C2)nc2c(N)nc3cc(-c4cc[nH]n4)ccc3c21 [Example 41]	770
CCCC(=O)N1CCC[C@H](c2nc3c(N)nc4cc(-c5cc[nH]n5)ccc4c3n2CC)C1 [Example 42]	220
CCn1c([C@H]2CCCN(C(=O)CC(C)C)C2)nc2c(N)nc3cc(-c4cc[nH]n4)ccc3c21 [Example 43]	210
CCn1c([C@H]2CCCN(C(=O)C3CCC3)C2)nc2c(N)nc3cc(-c4cc[nH]n4)ccc3c21 [Example 44]	220
CCn1c([C@H]2CCCN(C(=O)C3(C#N)CC3)C2)nc2c(N)nc3cc(-c4cc[nH]n4)ccc3c21 [Example 45]	110
